Where no end group is shown, it is not given here.
What was measured:
[1] = system: C. sojina QoI fungicide-sensitive isolate Cs320; assay: microbe, parasite or virus in culture; type: cell-based, Cercospora sojina; conditions: SFM, ~10^5 conidia ml−1, room temperature, 48 h; resazurin cell viability assay and microscopy
Description: In vitro antifungal activity of AFPs and QoI fungicides was determined using 96-well plate assays as described ([Velivelli et al., 2020]) with slight modifications. Briefly, 2- to 3-week-old C. sojina was used to make a conidial suspension in 2× SFM at the final concentration of ∼10^5 conidia ml^−1. Simultaneously, peptide dilutions (in water) at various concentrations were made. Fungicides were dissolved in 50% acetone and 50% water to make a stock solution of 500 µM, and serial dilutions were made in water as needed. The peptide–conidia or the fungicide–conidia mixture at the ratio of 1:1 (45 µl:45 µl) was added in a 96-well plate and incubated at room temperature for 48 h, after which MICs of the peptides/fungicides were calculated based on microscopy as well as the resazurin cell viability assay ([Velivelli et al., 2020]).

[2] = system: C. sojina Cs350 (fungicide resistant); assay: Peptide-fungicide checkerboard assay; type: cell-based, Cercospora sojina; conditions: pair azoxystrobin / NCR13_PFV1; Cs350; 4 d; SHAM 60 µg ml–1; microscopy
Description: Synergy between NCR13_PFV1 and the widely used QoI foliar fungicides, azoxystrobin (Sigma-Aldrich, Cat No: 31697), trifloxystrobin (Sigma-Aldrich, Cat No: 46447), and pyraclostrobin (Sigma-Aldrich, Cat No: 33696), were evaluated using checkerboard assays. This assay was performed in a 96-well plate and the preparation of conidial suspension, peptide dilutions, and fungicide dilutions were similar to the in vitro antifungal activity assay described above. The presence of an alternative respiration pathway allows some fungi including C. sojina to germinate even in the presence of a high dose of QoI fungicides in vitro ([Ziogas et al., 1997]; [Zhang et al., 2012]). Therefore, to prevent alternative respiration in C. sojina, salicylhydroxamic acid (SHAM) was added in each reaction at the final concentration of 60 µg ml^–1 ([Zhang et al., 2012]). The conidia, peptide, fungicide, and SHAM were added in a 96-well plate at the v/v ratio of 4:1:1:2 (50 µl:12.5 µl:12.5 µl:25 µl) in the final reaction volume of 100 µl, and the plate was incubated at room temperature for 96 h (4 d). After 96 h, MIC values of the peptide–fungicide combination, peptide alone, and fungicide alone were calculated based on microscopy as well as the resazurin cell viability assay. The fractional inhibitory concentration (FIC) index was calculated using the formula FIC = (MICA+B/MICA) + (MICB+A/MICB), where MICA and MICB are the MIC for peptide (A) alone and fungicide (B) alone, respectively, MICA+B is the MIC for peptide in combination with fungicide (A+B), and MICB+A is the MIC for fungicide in combination with peptide (B+A). The FIC index was interpreted as: synergistic, ≤0.5; additive, >0.5–1.0; indifferent, >1 to <4.0; or antagonistic, ≥4.0.

[3] = system: azoxystrobin-resistant C. sojina Cs350 conidia; assay: Cell death detection assay (propidium iodide, confocal microscopy); type: cell-based, Cercospora sojina; conditions: NCR13_PFV1 1.5 μM alone; within 1 h; PI staining; n=3
Description: The fungicidal activity of azoxystrobin and peptide NCR13_PFV1 in azoxystrobin-resistant C. sojina Cs350 was analyzed by visualizing the influx of a cell death indicator dye propidium iodide (PI) using time-lapse confocal microscopy. The C. sojina conidia were treated with various concentrations of azoxystrobin, NCR13_PFV1, azoxystrobin plus NCR13_PFV1, or water and 0.5 μg ml^–1 PI, and were observed under confocal microscopy at an excitation and emission wavelength of 500 nm and 545–690 nm, respectively. Z-stacks at each time point were acquired using a ×63 water immersion objective lens (HC PL Apochromat CS2). For each sample, the number of live and dead cells after 1 h of peptide, fungicide, or combination treatment was determined.

[4] = system: C. sojina Cs320 and Cs350 on soybean cv. Blackhawk (FLS); assay: Pre- and post-inoculation in planta antifungal assays with fungal DNA qPCR; type: in vivo, Cercospora sojina
Description: For both pre- and post-inoculation in planta antifungal activity assays, 2- to 3-week-old soybean plants cv. Blackhawk (FLS susceptible) grown under a16 h light and 8 h dark cycle were used. For pre-inoculation in planta antifungal activity assay, the second or third trifoliate leaves of soybean plants were first sprayed with 1 ml of NCR13_PFV1 peptide (48 µM) on the abaxial leaf surface followed by spray inoculation with 1 ml of conidial suspension (1×10^5 ml^−1) of azoxystrobin-sensitive Cs320 or -resistant Cs350 isolate. For the post-inoculation in planta antifungal activity assay, the second or third trifoliate leaves of soybean were first spray-inoculated with 1 ml of conidial suspension (1×10^5 ml^−1) followed by spray application of 1 ml of NCR13_PFV1 peptide (48 µM) 2 h later. The mock-treated plants were sprayed with water but no peptide. For both pre- and post-inoculation in planta assays, each treatment consisted of at least four plants and the experiments were performed at least twice. The inoculated plants were kept in a growth chamber under a 16 h light and 8 h dark cycle and 90% relative humidity. The FLS symptoms started to appear 7–10 d post-inoculation and disease scoring was done at 14 d. Diseased leaves were excised from the plant, and both white light and CropReporter (Fv/Fm) images were taken to assess the photosynthetic efficiency of the plant. The leaves were also scored based on a 0–5 scale where: 0=healthy leaves with no leaf spots, 1=1–25% leaf area covered with spots, 2=26–50% leaf area covered with spots, 3=slightly yellow leaves with 51–75% leaf area covered with spots, 4=moderately yellow leaves with 76–95% leaf area covered with spots, and 5=whole leaf is yellow or >96% leaf area covered with spots.
Furthermore, DNA was extracted from the excised leaves to quantify the fungal DNA content using quantitative PCR (PCR). […] DNA quantification in terms of fold change was calculated using the ΔΔCt method ([Livak and Schmittgen, 2001]). […]

## TKPCQSDKDCKKFACRKPKVPKCINGFCKCVR (disulfide (positions not given here)) [NCR13_PFV1, chickpea nodule-specific cysteine-rich 32 amino acid peptide, disulfide cross-linking variant 1, expressed in Pichia pastoris]
[1]
  MIC (μM) against C. sojina isolates, Fungicide sensitive, Cs320: 0.75 µM
[2]
  Combination MIC: 0.75 µM
[3]
  cell death: 57%
[4]; 48 µM spray, Cs320 and Cs350, P-value ≤0.05
  fungal biomass in infected leaves (fungal DNA, qPCR): significantly reduced biomass
[4]; 48 µM spray, pre- or post-inoculation (2 h), Cs320 or Cs350, scored at 14 d, Wilcoxon, P-value ≤0.05, n=8, r=2
  FLS symptoms (disease severity, 0–5 scale): significantly reduced
[4]; preliminary experiments, 12 µM to 48 µM tested
  concentration giving the best control of FLS symptoms: 48 µM

From paper PMC13672995, “NCR13 peptide protects soybean against Cercospora sojina using multi-faceted modes of action and additive interaction with chemical fungicides” (Journal of Experimental Botany, 2025)
